Source: patent publication US9266840B2, “Bicyclic heterocyclic compound” (Astellas Pharma Inc., priority 2011, dated 2016)
Where two headings read alike, the source gives them in different places.

What was measured:
[1] = test system: spinal nerve ligation model; experiment: Test for spinal nerve ligation model (von Frey hair test); assay type: in vivo, rats (SD, male); settings: 1 mg/kg orally, 1 hour before evaluation, threshold of 50% retraction response, pseudo-operation = 100%, solvent = 0%
Procedure: Test Method 3: Test for Spinal Nerve Ligation Model This test was performed according to Pain, 1992, Vol. 50, p 355-363. The skin and muscle in the lumbar region of rats (SD, male, 5- to 6-week old) were excised under pentobarbital anesthesia, and a lumbar L6 transverse process was removed to expose lumbar nerves. L5 and L6 spinal nerves were ligated with a silk thread, and then the wound was sutured. The procedure was performed in the left side. In addition, in the case of pseudo-operation, the wound was sutured without performing nerve ligation. The drug efficacy was evaluated on the postoperative days 7 to 12 by von Frey hair test. The threshold of retraction response was calculated according to Journal of Neuroscience Methods, 1994, Vol. 53, p 55-63. By using 8 types of von Frey filaments (0.41 g to 15.14 g), the sole of the rat's hindlimb was stimulated, and the threshold of 50% retraction response was determined by an up-and-down method. […] The test substance was evaluated by calculating the improvement rate of the test substance-administered group, under the condition that the threshold of the procedure-performed limb of the pseudo-operation animal group was regarded as 100% and the threshold of the procedure-performed limb of the solvent-administered animal group having undergone operation was regarded as 0%.

[2] = test system: model with fibromyalgia caused by repeated reserpine administration; experiment: Test for model with fibromyalgia caused by repeated reserpine administration (muscle tenderness threshold); assay type: in vivo, rats (SD, male); settings: 10 mg/kg orally, calculated point in time 60 min, healthy rat = 100%, reserpine + solvent = 0%
Procedure: Test Method 4: Test for Model with Fibromyalgia Caused by Repeated Reserpine Administration
This test was performed according to Pain, 2009, Vol. 146, p 26-33., by using rats (SD, male, 7-week old).
The threshold of muscle tenderness was measured according to the method of Schafers et al. (Pain, 2003, Vol. 104, p 579-588). A pressure stimulus slowly increasing up to 250 g was applied to the gastrocnemius muscle of the right lower leg of the rat. […] The measurement was performed 3 times for each point in time, and the average thereof was taken as a measured value.
A solvent (0.5% aqueous acetic acid) or reserpine (1 mg/kg) was subcutaneously administered to the back of the rat once a day for three days. The dose of both the solvent and reserpine administered was 1 mL per 1 kg of the body weight of the animal. 6 days after the beginning of the administration of the solvent or reserpine, the muscle tenderness threshold of each rat was measured, and the rats were grouped such that the difference in the average of threshold between the respective groups was reduced. The drug efficacy evaluation was performed on the next day. […] 30, 60, and 120 minutes after the administration, the muscle tenderness threshold was measured. For healthy rats, the drug was not administered, and only the muscle tenderness threshold was measured. […]

[3] = target: T1, recombinant human 11β-HSD1 (Homo sapiens, UniProt P28845); experiment: Human 11β-HSD1 inhibitory activity (HTRF cortisol detection); assay type: biochemical; settings: recombinant human 11β-HSD1, 200 nM cortisone, 40 μM NADPH, 1 h room temperature
T1 construct: made in house
T1 sequence (P28845 whole entry): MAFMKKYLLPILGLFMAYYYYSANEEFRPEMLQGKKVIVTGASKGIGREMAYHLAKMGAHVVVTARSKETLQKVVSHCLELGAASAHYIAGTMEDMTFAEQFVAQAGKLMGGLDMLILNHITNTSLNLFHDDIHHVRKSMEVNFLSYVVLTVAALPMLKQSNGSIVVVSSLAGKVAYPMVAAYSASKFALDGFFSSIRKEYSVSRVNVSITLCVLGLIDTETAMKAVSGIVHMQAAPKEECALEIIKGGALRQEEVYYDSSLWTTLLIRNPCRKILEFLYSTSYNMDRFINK
Procedure: (§1) Test Method 1: Test for Measuring Human 11β-HSD1/11β-HSD2 Inhibitory Activity
(§2) 11β-HSD1 inhibitory activity was measured in the following order. In addition, an enzymatic reaction and assay was performed using a 384-well plate. The enzyme was prepared according to a document (Walker E. A. et al., Journal of Biological Chemistry, 2001, Vol. 276, p. 21343-21350). The reaction was performed in a manner in which various concentrations of test compounds were added to a reaction liquid including a 10 mM a phosphoric acid buffer (pH 6.6), 200 nM cortisone, 40 μM reduced nicotinamide adenine dinucleotide phosphate (NADPH), and recombinant human 11β-HSD1, followed by incubation for an hour at room temperature (10 μl/well). The test compound was dissolved in dimethylsulfoxide (DMSO), and the DMSO concentration was adjusted so as to be 1% in the reaction liquid. After the enzymatic reaction, cortisol was detected using Homogenous Time-Resolved Fluorescence (HTRF) to measure enzyme inhibitory activity. XL-665-labeled cortisol including 400 μM carbenoxolone and a cryptate-labeled cortisol antibody (CIS bio international) were added respectively to the plate at 5 μl/well, followed by incubation for 2 hours at room temperature, and then fluorescence intensity was measured using a fluorospectrometer (trade name: Discovery, manufactured by PerkinElmer Inc.), thereby calculating enzyme inhibitory activity from the ratio of fluorescence intensity between two wavelengths (665 nm/620 nm).
(§3) The results of measurement were calculated by obtaining the average of the values of three wells under the same condition. The ratio obtained when DMSO was added instead of the test compound was regarded as 0%, and the ratio obtained when 11β-HSD1 or 11β-HSD2 was not added was regarded as 100%, whereby a concentration at which the test compound suppresses the enzyme activity by 50% was calculated as IC50 of the inhibitory activity of the compound.

[4] = target: T2, recombinant human 11β-HSD2 (Homo sapiens, UniProt P80365); experiment: Human 11β-HSD2 inhibitory activity (HTRF); assay type: biochemical; settings: recombinant human 11β-HSD2, 200 nM cortisol, 200 μM NAD, 2 h 37° C.
T2 sequence (P80365 1-405): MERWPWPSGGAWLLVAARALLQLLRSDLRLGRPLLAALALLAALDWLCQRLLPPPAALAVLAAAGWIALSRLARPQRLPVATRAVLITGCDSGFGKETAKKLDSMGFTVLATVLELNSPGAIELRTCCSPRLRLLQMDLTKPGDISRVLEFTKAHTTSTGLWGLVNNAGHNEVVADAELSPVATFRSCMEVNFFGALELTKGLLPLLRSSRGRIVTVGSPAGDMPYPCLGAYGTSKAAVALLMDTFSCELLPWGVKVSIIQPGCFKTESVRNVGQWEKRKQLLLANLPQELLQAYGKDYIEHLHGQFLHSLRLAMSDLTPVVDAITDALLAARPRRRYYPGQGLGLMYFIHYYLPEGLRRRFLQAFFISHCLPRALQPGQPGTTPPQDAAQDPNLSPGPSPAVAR
Procedure: as §1, §2
11β-HSD2 inhibitory activity was measured in the same manner as in the measurement of the 11β-HSD1 inhibitory activity, except for the conditions of the enzymatic reaction. The enzymatic reaction was performed in the manner in which various concentrations of test substances were added to a reaction liquid including 40 mM tris-hydrochloric acid buffer (Tris-HCl) (pH 8.0), 200 nM cortisol, 200 μM nicotinamide adenine dinucleotide (NAD), and recombinant human 11β-HSD2, followed by incubation for 2 hours at 37° C. (10 μl/well).
as §3

[5] = test system: spontaneous alternation behavior disorder induced by scopolamine; experiment: Test for spontaneous alternation behavior disorder induced by scopolamine (Y-maze); assay type: in vivo, male ddY mice; settings: oral administration, ddY mice, scopolamine 0.5 mg/kg i.p.
Procedure: Test Method 2: Test for Spontaneous Alternation Behavior Disorder Induced by Scopolamine Test drugs were orally administered to 5- to 7-week old male ddY mice. 10 minutes later, scopolamine was intraperitoneally administered to the animals at 0.5 mg/kg. 20 minutes later, the animal was put in Y-maze having arms with the same length and extending in three directions and allowed to freely explore for 8 minutes. During the exploration, spontaneous arm-alternating behavior (entering different arms 3 times consecutively) was counted to calculate the rate of spontaneous alternation (spontaneous alternation behavior/(number of times of entering−2)×100), thereby judging drug efficacy.

[6] = Pharmacokinetic test (plasma and brain concentration, LC-MS/MS); assay type: in vivo; settings: male, mouse, po, mice, 1 mg/kg orally, an hour after administration
Procedure: Test Method 5: Pharmacokinetic Test
A 0.5% methyl cellulose suspension including the test substance was orally administered to 5-week old male mice, and the blood and brain were collected after a certain time passed from the administration. The collected blood sample was treated with sodium heparin, and then the plasma was separated, thereby preparing a plasma sample. In addition, a phosphoric acid buffer (pH 7.0) was added to the collected brain sample, in an amount that was 4 times the weight of the brain, thereby preparing 20% brain homogenate. The concentration of the respective test substances in the plasma and brain was measured using LC-MS/MS. An hour after Example 8-1 was administered at 1 mg/kg, the concentration of the substance in the plasma was 153 ng/ml, and the concentration in the brain was 58 ng/ml.

[7] = test system: cortisol in the brain homogenate; experiment: Pharmacokinetic test under cortisone load (brain cortisol by ELISA); assay type: in vivo, male ddY mice; settings: Mus musculus; ddY mice, 1 mg/kg orally; cortisone 1 mg/kg i.p. after 30 min, brain collected 20 min later; read-out: inhibition rate (cortisol in brain)
Procedure: Test Method 6: Pharmacokinetic Test Under Cortisone Load
A 0.5% methyl cellulose solution or a 0.5% methyl cellulose suspension including the test substance was orally administered to 5-week old male ddY mice. After 30 minutes, cortisone was intraperitoneally administered at 1 mg/kg, and 20 minutes later, the brain was collected. A phosphoric acid buffer (pH 7.0) was added to the collected brain sample, in an amount that was 9 times the weight of the brain, thereby preparing 10% brain homogenate. The quantity of cortisol in the brain homogenate was determined by ELISA, and the inhibition rate resulting from the test substance was calculated, under the condition that the amount of cortisol produced from the mouse orally administered with 0.5% methyl cellulose was regarded as 100%.

Row | Compound | IC50 [3] [µM] | IC50 [4] [µM] | other results
1 | N#Cc1cccc(F)c1-c1ccc(C(=O)N(C2CC2)C2CCc3[nH]ncc3C2)cc1 (single isomer, unassigned; (-)) [Example 7-1, (−)-2′-cyano-N-cyclopropyl-6′-fluoro-N-(4,5,6,7-tetrahydro-1H-indazol-5-yl)biphenyl-4-carboxamide] | 0.018 | > 3 | Improvement rate % (applied dose) [1]: 52 (1 mg/kg) %; Maximum improvement rate % (applied dose) [2]: 82 (10 mg/kg) %; Dose improving minimum spontaneous alternation rate [5]: 1.0 mg/kg
2 | CC(C)Oc1ccc(C(=O)N(C2CC2)C2CCc3[nH]ncc3C2)cc1 (single isomer, unassigned; (-)) [Example 8-1, (−)-N-cyclopropyl-4-isopropoxy-N-(4,5,6,7-tetrahydro-1H-indazol-5-yl)benzamide] | 0.026 | > 30 | Improvement rate % (applied dose) [1]: 73 (1 mg/kg) %; Maximum improvement rate % (applied dose) [2]: 104 (10 mg/kg) %; concentration at 1 h ([6]; plasma, read-out: concentration of the substance in the plasma): 153 ng/mL; concentration at 1 h ([6]; brain homogenate, read-out: concentration in the brain): 58 ng/mL; Dose improving minimum spontaneous alternation rate [5]: 0.3 mg/kg; inhibition at 1 mg/kg [7]: 43%
3 | N#Cc1ccccc1-c1ccc(C(=O)N(C2CC2)C2CCc3[nH]ncc3C2)cc1 (stereo not shown) [Example 1, 2′-cyano-N-cyclopropyl-N-(4,5,6,7-tetrahydro-1H-indazol-5-yl)biphenyl-4-carboxamide] | 0.048 | > 30 | –
4 | COc1cc(OC(C)C)ccc1C(=O)N(C1CC1)C1CCc2[nH]ncc2C1 (stereo not shown) [Example 5, N-cyclopropyl-4-isopropoxy-2-methoxy-N-(4,5,6,7-tetrahydro-1H-indazol-5-yl)benzamide] | 0.056 | – | –
5 | O=C(c1ccc(-c2ccccc2F)o1)N(C1CC1)C1CCc2[nH]ncc2C1 (stereo not shown) [Example 27] | 0.062 | > 3 | –
6 | Cc1cc(C(=O)N(C2CC2)C2CCc3n[nH]cc3C2)c(C)n1Cc1ccc(F)cc1F (stereo not shown) [Example 30] | 0.028 | > 3 | –
7 | Cn1ccc2c(C(=O)N(C3CC3)C3CCc4[nH]ncc4C3)cccc21 (stereo not shown) [Example 81] | 0.024 | > 30 | –
8 | COc1ccc(C(=O)N(C2CC2)C2CCc3[nH]ncc3C2)c2ccn(C)c12 (stereo not shown) [Example 132] | 0.038 | > 30 | –
9 | CC(F)(F)CCCn1ncc2c(C(=O)N(C3CC3)C3CCc4[nH]ncc4C3)cccc21 (stereo not shown) [Example 159] | 0.04 | > 30 | –
10 | N#Cc1cc(F)ccc1-c1ccc(C(=O)N(C2CC2)C2CCc3[nH]ncc3C2)cc1 (stereo not shown) [Example 176] | 0.088 | – | –
11 | N#Cc1ccccc1-c1ccc(C(=O)N(C2CC2)C2CCc3[nH]ncc3C2)c(F)c1 (stereo not shown) [Example 190] | 0.025 | – | –
12 | O=C(c1ccc(-c2c(F)cccc2F)cc1)N(C1CC1)C1CCc2[nH]ncc2C1 (stereo not shown) [Example 216] | 0.043 | – | –
13 | O=C(c1ccc(-c2c(F)cncc2F)cc1)N(C1CC1)C1CCc2n[nH]cc2C1 (stereo not shown) [Example 228] | 0.053 | – | –
14 | CC(C)Cc1ccc(C(=O)N(C2CC2)C2CCc3[nH]ncc3C2)cc1 (stereo not shown) [Example 237] | 0.04 | – | –
